Reference: patent CN108310390A, “多西他赛亚油酸酯及其脂肪乳剂和应用” (Shenyang Pharmaceutical University, priority 2018, dated 2018)
Converted amounts (≈) assume the structure as drawn.

Columns and labels:
[1] = system: 4T1 cells [4T1细胞]; assay: In vitro cytotoxicity test (MTT, 72 h); conditions: Mus musculus, 4T1, 72 h
[2] = system: 4T1 cells [4T1细胞]

Row | SMILES | IC50 [1] | cytotoxicity (in words) [2]
1 | CCCCCC=CCC=CCCCCCCCC(=O)OC(C(=O)OC1CC2(O)C(OC(=O)c3ccccc3)C3C4(OC(C)=O)COC4CC(O)C3(C)C(=O)C(O)C(=C1C)C2(C)C)C(NC(=O)OC(C)(C)C)c1ccccc1 (stereo not drawn) [多西他赛亚油酸酯] | 0.0136 ± 0.00204 µg/mL (≈ 0.0127 µM) | 细胞毒性强于多西他赛
2 | CC(=O)O[C@@]12CO[C@@H]1C[C@H](O)[C@@]1(C)C(=O)[C@H](O)C3=C(C)[C@@H](OC(=O)[C@H](O)[C@@H](NC(=O)OC(C)(C)C)c4ccccc4)C[C@@](O)([C@@H](OC(=O)c4ccccc4)[C@H]21)C3(C)C [多西他赛] | 0.0265 ± 0.00136 µg/mL (≈ 0.0328 µM) | –
